In patent US20230303569A1, “HETEROCYCLIC COMPOUNDS AS THERAPEUTIC AGENTS” (Arisan Therapeutics Inc., priority 2021, published 2023):
Like-named read-outs stand apart in the source and are kept apart here.

Assays:
human Nav1.6 = target: T1, human Nav1.6 (Homo sapiens, UniProt Q9UQD0); test: Two pulse assay protocol, Nav1.6; format: cell-based; conditions: peak current
T1 construct: host or cells: HEK293
Experimental: (§1) In vitro Na+ Current Inhibition Assays were performed by Eurofins Discovery (St Charles, MO). All compound functional activity determinations were determined through electrophysiological analyses of Na+ currents in HEK293 cells expressing a stably transfected Na+ channel (human Nav1.1, 1.2, 1.3, 1.5, 1.6, 1.7, or 1.8). After harvesting with Accutase cells are maintained in serum free medium at room temperature prior to electrophysiological recording utilizing the QPatch HT automated whole-cell patch-clamp platform (Sophion Bioscience, Woburn MA). Stock solution aliquots of the test compound are prepared in DMSO at 300× the final assay concentrations, and stored at −20° C. until the day of assay. On the day of the assay, an aliquot of the stock solution is thawed and diluted into external solution (137 mM NaCl, 4 mM KCl, 1 mM MgCl2, 1.8 mM CaCl2, 10 mM HEPES, 10 mM Glucose (pH 7.3, titrated with 10M NaOH) to make final test concentrations. A final concentration of 0.33% DMSO is maintained for each concentration of the assay compounds. Internal solution for recordings of Na+ consist consists of 100 mM CsF, 45 mM CsCl, 5 mM NaCl, 10 mM HEPES, 5 mM EGTA (pH 7.3, titrated with 1M CsOH).
(§2) Two pulse assay protocol for human Nav1.1, 1.2, 1.3, 1.5, 1.6, 1.7, and 1.8 channels. Mammalian cultured cells expressing the indicated human Nav1.1, 1.2, 1.3, 1.5, 1.6, 1.7 or 1.8 channels were assayed using the The QPatch HT (Sophion Bioscience, Woburn MA) automated system with an intracellular solution (mM) of 100 CsF, 45 CsCl, 5 NaCl, 10 HEPES, 5 EGTA (pH 7.3, titrated with 1M CsOH) and extracellular solution (mM) of 137 NaCl, 4 KCl, 1 MgCl2, 1.8 CaCl2, 10 HEPES, 10 Glucose (pH 7.3, titrated with 10M NaOH). Onset and steady state block of the sodium channel was measured using a pulse pattern, repeated every 20 seconds (s) from a holding potential of −120 mV for 100 ms, and then pulsed to 0 mV for 500 ms to inactivate the Na channels and facilitate inactivated state-dependent binding of the test compounds. The cell membranes were then stepped back to −120 mV for 10 ms to recover from inactivation into resting or closed state (channels with test compound bound to them will not recover from inactivation and will not open) before stepping to 0 mV for 50 ms (pulse 2) to measure Na channels that are available to open. Peak current was measured during the step to 0 mV at pulse 1 and 2 to measure tonic and state-dependent inhibition. Compound activities were assessed by dividing post current amplitude (at the end of each five (5) minute compound application) by the vehicle control amplitude and the mean calculated for each compound concentration. Tetracaine was used as a positive control and was tested concurrently with the test compounds. Current amplitudes in excess of 200 pA at the control stage were analyzed. The amplitude of the current was calculated by measuring the difference between the peak inward current on stepping to 0 mV (i.e. peak of the current) and remaining current at the end of the step. The current was assessed in vehicle control conditions and then at the end of each five (5) minute compound application.

human Nav1.8 = target: T2, human Nav1.8 (Homo sapiens, UniProt Q9Y5Y9); test: Two pulse assay protocol, Nav1.8; format: cell-based; conditions: peak current
T2 construct: host or cells: HEK293
Experimental: as §1, §2

[1] = pulse 1 (tonic), read-out: percent inhibition hNav1.6, Pulse 1 (5 uM)
[2] = pulse 2 (state-dependent), read-out: percent inhibition hNav1.6, Pulse 2 (5 uM)
[3] = pulse 1 (tonic), read-out: percent inhibition hNav1.8, Pulse 1 (5 uM)
[4] = pulse 2 (state-dependent), read-out: percent inhibition hNav1.8, Pulse 2 (5 uM)
[5] = pulse 1 (tonic), read-out: percent inhibition hNav1.6, Pulse 1 (2.5 uM)
[6] = pulse 2 (state-dependent), read-out: percent inhibition hNav1.6, Pulse 2 (2.5 uM)

T2 sequence (Q9Y5Y9 whole entry): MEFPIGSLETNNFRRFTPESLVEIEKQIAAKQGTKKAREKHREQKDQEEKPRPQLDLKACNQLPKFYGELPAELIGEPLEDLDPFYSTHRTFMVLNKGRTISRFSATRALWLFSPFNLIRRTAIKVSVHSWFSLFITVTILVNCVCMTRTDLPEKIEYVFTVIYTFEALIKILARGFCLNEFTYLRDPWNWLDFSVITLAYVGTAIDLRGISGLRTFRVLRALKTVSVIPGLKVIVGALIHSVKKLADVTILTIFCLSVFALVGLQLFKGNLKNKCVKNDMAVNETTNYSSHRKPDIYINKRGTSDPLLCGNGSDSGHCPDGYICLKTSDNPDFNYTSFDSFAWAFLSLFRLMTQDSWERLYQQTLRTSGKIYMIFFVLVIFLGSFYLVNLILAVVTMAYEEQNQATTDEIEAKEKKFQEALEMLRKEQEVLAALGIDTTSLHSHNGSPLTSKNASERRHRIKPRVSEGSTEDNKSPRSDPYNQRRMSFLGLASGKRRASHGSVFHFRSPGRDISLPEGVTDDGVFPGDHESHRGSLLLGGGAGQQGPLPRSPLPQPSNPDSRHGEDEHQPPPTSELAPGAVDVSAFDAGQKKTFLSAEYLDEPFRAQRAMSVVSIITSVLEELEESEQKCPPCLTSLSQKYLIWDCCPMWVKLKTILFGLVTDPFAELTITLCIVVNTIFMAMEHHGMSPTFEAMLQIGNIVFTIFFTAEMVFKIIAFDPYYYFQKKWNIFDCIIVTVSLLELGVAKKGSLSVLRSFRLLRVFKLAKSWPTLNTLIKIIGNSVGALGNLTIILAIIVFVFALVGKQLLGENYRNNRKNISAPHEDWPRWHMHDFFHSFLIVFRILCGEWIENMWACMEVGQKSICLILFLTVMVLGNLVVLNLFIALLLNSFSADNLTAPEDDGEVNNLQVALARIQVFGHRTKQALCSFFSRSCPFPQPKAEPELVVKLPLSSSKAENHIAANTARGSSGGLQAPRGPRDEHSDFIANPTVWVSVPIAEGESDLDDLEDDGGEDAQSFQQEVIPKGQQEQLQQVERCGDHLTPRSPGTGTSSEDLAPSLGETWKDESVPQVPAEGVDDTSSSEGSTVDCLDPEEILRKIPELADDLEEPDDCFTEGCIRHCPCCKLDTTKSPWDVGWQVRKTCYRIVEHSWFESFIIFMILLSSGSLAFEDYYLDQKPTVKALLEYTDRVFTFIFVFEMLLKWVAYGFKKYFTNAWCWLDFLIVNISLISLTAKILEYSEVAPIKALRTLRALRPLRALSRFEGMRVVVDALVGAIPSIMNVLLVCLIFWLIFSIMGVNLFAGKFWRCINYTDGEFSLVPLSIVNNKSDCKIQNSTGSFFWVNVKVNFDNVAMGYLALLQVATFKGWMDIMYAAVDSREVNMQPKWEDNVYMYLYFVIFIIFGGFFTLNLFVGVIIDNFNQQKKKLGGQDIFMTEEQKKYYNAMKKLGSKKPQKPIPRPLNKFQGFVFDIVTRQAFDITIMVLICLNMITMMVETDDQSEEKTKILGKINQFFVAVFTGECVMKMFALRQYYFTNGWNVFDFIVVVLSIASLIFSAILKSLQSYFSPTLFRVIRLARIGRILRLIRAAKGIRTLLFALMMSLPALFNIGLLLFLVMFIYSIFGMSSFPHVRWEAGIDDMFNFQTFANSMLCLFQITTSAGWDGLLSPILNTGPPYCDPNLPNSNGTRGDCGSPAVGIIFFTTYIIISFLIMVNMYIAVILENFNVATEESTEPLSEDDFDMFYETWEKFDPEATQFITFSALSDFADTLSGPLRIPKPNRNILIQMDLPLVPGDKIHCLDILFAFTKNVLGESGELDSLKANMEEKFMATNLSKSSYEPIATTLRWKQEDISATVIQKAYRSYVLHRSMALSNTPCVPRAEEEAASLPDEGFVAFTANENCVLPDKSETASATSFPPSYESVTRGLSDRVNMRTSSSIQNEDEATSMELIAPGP
T1 sequence (Q9UQD0 whole entry): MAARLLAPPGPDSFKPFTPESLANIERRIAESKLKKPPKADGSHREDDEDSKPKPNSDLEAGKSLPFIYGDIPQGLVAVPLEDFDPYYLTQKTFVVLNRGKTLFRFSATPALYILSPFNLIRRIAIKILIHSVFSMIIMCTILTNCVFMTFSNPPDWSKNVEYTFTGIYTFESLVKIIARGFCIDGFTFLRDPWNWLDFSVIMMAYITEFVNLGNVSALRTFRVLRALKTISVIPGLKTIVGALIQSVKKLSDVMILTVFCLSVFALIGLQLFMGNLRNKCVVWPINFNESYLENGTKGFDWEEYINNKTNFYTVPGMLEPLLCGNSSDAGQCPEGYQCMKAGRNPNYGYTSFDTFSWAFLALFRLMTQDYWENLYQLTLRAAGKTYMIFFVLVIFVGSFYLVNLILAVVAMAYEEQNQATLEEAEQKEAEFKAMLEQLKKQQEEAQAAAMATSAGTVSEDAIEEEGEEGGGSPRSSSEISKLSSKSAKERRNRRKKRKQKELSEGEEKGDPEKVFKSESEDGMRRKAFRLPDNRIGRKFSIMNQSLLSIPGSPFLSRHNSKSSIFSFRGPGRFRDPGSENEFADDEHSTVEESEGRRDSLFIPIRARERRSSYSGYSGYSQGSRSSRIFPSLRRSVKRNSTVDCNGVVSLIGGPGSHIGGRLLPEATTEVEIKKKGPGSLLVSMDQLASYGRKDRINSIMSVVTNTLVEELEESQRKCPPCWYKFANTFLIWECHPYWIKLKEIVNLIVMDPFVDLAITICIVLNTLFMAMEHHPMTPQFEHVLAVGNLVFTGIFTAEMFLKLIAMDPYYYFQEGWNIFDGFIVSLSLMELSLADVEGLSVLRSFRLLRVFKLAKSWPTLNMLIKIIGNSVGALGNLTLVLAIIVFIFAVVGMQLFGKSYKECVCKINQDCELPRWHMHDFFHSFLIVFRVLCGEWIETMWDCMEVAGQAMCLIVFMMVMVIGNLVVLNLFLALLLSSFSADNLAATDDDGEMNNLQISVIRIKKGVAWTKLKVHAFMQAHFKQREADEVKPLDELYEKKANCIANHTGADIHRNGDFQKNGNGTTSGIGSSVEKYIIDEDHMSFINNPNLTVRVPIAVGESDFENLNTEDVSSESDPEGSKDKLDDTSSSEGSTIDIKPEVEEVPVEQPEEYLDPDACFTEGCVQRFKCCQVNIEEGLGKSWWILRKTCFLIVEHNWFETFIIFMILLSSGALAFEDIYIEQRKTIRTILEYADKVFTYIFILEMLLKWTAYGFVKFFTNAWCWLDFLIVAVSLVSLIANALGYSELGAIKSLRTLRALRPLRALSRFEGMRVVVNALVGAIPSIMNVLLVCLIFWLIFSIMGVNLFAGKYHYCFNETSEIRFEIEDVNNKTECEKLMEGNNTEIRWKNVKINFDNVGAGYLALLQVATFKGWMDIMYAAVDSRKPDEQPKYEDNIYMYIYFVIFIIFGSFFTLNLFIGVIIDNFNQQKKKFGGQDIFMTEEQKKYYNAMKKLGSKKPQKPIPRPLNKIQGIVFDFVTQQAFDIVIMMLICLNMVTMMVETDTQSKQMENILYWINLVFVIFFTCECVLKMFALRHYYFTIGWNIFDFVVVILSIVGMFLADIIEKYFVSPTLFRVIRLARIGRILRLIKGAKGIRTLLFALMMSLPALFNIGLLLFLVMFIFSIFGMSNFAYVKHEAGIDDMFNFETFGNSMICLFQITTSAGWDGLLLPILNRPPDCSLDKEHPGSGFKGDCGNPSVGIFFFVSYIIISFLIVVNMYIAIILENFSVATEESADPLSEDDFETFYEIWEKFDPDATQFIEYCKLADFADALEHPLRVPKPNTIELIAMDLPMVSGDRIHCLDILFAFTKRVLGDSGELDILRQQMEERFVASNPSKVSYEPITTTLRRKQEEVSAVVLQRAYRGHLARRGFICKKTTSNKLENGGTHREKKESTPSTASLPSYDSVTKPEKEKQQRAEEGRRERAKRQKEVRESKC

Row | inhibition at 5 µM (human Nav1.6; [1]) | inhibition at 5 µM (human Nav1.6; [2]) | SMILES | other results
1 |  |  | COc1cc(OC)cc(-c2ccc3ncc(-c4ccc(OC(F)(F)F)cc4)n3c2)c1 [Example C58, 6-(3,5-dimethoxyphenyl)-3-(4-(trifluoromethoxy)phenyl)imidazo[1,2-a]pyridine] | inhibition at 5 µM (human Nav1.8; [3]): 50 to 90%; inhibition at 5 µM (human Nav1.8; [4]): 50 to 90%; inhibition at 2.5 µM (human Nav1.6; [5]): < 50%; inhibition at 2.5 µM (human Nav1.6; [6]): > 90%
2 | < 50% | > 90% | CC(C)Oc1ccc(-c2ccc3ncc(-c4ccc(OC(C)C)cc4)n3c2)cc1 [Example C2, 3,6-bis[4-(propan-2-yloxy)phenyl]imidazo[1,2-a]pyridine] | 
3 |  |  | COc1cc(OC)cc(-c2cnc3ccc(-c4ccc(OC(F)(F)F)cc4)cn23)c1 [Example C59, 3-(3,5-dimethoxyphenyl)-6-(4-(trifluoromethoxy)phenyl)imidazo[1,2-a]pyridine] | inhibition at 5 µM (human Nav1.8; [3]): < 50%; inhibition at 5 µM (human Nav1.8; [4]): < 50%
4 | < 50% | < 50% | Cc1cc(-c2ccc(OC(C)C)cc2)cn2c(-c3ccc(OC(C)C)cc3)cnc12 [Example C50, 8-methyl-3,6-bis[4-(propan-2-yloxy)phenyl]imidazo[1,2-a]pyridine] | 
5 |  |  | CC(C)Oc1ccc(-c2cn3c(-c4ccc(OC(C)(C)C)cc4)cnc3cc2Cl)cc1 [Example C91, 3-(4-(tert-butoxy)phenyl)-7-chloro-6-(4-isopropoxyphenyl)imidazo[1,2-a]pyridine] | inhibition at 2.5 µM (human Nav1.6; [5]): < 50%; inhibition at 2.5 µM (human Nav1.6; [6]): < 50%
6 | < 50% | > 90% | CC(C)Oc1ccc(-c2ccc3ncc(-c4ccc(OC(C)C)cc4)n3n2)cc1 [Example D10, 3,6-bis[4-(propan-2-yloxy)phenyl]imidazo[1,2-b]pyridazine] | 
7 | < 50% | 50 to 90% | CC(C)Oc1ccc(-c2ccc3ncc(-c4cncc(OC(C)C)c4)n3c2)cc1 [Example C77, 6-(4-isopropoxyphenyl)-3-(5-isopropoxypyridin-3-yl)imidazo[1,2-a]pyridine] | 
8 | < 50% | 50 to 90% | Cc1cc(OC(C)C)ccc1-c1ccc2ncc(-c3ccc(OC(C)C)cc3)n2c1 [Example C18, 6-[2-methyl-4-(propan-2-yloxy)phenyl]-3-[4-(propan-2-yloxy)phenyl]imidazo[1,2-a]pyridine] | 
9 | < 50% | < 50% | CC(C)Oc1ccc(-c2cnc3ccc(-c4ccc(OC(C)C)cc4F)cn23)cc1 [Example C23, 6-[2-fluoro-4-(propan-2-yloxy)phenyl]-3-[4-(propan-2-yloxy)phenyl]imidazo[1,2-a]pyridine] | 
10 | < 50% | < 50% | Cc1c(-c2ccc(OC(C)C)cc2)ccc2ncc(-c3ccc(OC(C)C)cc3)n12 [Example C51, 5-methyl-3,6-bis[4-(propan-2-yloxy)phenyl]imidazo[1,2-a]pyridine] | 
11 | < 50% | > 90% | CC(C)Oc1ccc(-c2ccc3ncc(-c4ccnc(OC(C)C)c4)n3c2)cc1 [Example C76, 6-(4-isopropoxyphenyl)-3-(2-isopropoxypyridin-4-yl)imidazo[1,2-a]pyridine] | 
12 | < 50% | < 50% | Cc1cc2ncc(-c3ccc(OC(C)C)cc3)n2cc1-c1ccc(OC(C)C)c(F)c1 [Example C80, 6-(3-fluoro-4-isopropoxyphenyl)-3-(4-isopropoxyphenyl)-7-methylimidazo[1,2-a]pyridine] | 
13 | < 50% | 50 to 90% | CC(C)Oc1ccc(-c2ccc3ncc(-c4cnc(OC(C)C)nc4)n3c2)cc1 [Example C75, 6-(4-isopropoxyphenyl)-3-(2-isopropoxypyrimidin-5-yl)imidazo[1,2-a]pyridine] | 
14 | < 50% | 50 to 90% | Cc1cc2ncc(-c3ccc(OC(C)C)cc3)n2cc1-c1ccc(OC(C)C)cc1 [Example C48, 7-methyl-3,6-bis[4-(propan-2-yloxy)phenyl]imidazo[1,2-a]pyridine] | 
15 | < 50% | > 90% | CC(C)Oc1ccc(-c2ccc3ncc(-c4ccc(Oc5ccccc5)nc4)n3c2)cc1 [Example C88, 6-(4-isopropoxyphenyl)-3-(6-phenoxypyridin-3-yl)imidazo[1,2-a]pyridine] | 
16 | < 50% | 50 to 90% | CC(C)Oc1ccc(-c2ccc3ncc(-c4ccc(OC(C)C)nc4F)n3c2)cc1 [Example C74, 3-(2-fluoro-6-isopropoxypyridin-3-yl)-6-(4-isopropoxyphenyl)imidazo[1,2-a]pyridine] | 

Row | SMILES | inhibition at 5 µM (human Nav1.6; [1]) | inhibition at 5 µM (human Nav1.6; [2]) | other results
17 | Cc1cc2ncc(-c3ccc(OC(C)(C)C)cc3)n2cc1-c1ccc(OC(C)C)nc1 [Example C78, 3-(4-(tert-butoxy)phenyl)-6-(6-isopropoxypyridin-3-yl)-7-methylimidazo[1,2-a]pyridine] | < 50% | > 90% | 
18 | CC(C)Oc1ccc(-c2ccc3ncc(-c4ccc(OC(C)(C)C)cc4)n3c2)cn1 [Example C83, 3-(4-(tert-butoxy)phenyl)-6-(6-isopropoxypyridin-3-yl)imidazo[1,2-a]pyridine] | < 50% | 50 to 90% | 
19 | CC(C)Oc1ccc(-c2cnc3ccc(-c4ccc(OC(C)(C)C)cc4)cn23)cc1 [Example C21, 6-[4-(tert-butoxy)phenyl]-3-[4-(propan-2-yloxy)phenyl]imidazo[1,2-a]pyridine] | < 50% | > 90% | 
20 | CC(C)Oc1ccc(-c2ccc3ncc(-c4ccc(OC(C)(C)C)cc4)n3c2)cc1F [Example C81, 3-(4-(tert-butoxy)phenyl)-6-(3-fluoro-4-isopropoxyphenyl)imidazo[1,2-a] pyridine] | < 50% | > 90% | 
21 | Cc1cc2ncc(-c3ccc(OC(C)(C)C)cc3)n2nc1-c1ccc(OC(C)C)cc1 [Example D23, 3-(4-(tert-butoxy)phenyl)-6-(4-isopropoxyphenyl)-7-methylimidazo[1,2-b]pyridazine] | < 50% | 50 to 90% | 
22 | CC(C)(C)Oc1ccc(-c2cnc3ccc(-c4cnc(OCC(F)(F)F)c(F)c4)cn23)cc1 [Example C86, 3-(4-(tert-butoxy)phenyl)-6-(5-fluoro-6-(2,2,2-trifluoroethoxy)pyridin-3-yl)imidazo[1,2-a]pyridine] | < 50% | > 90% | 
23 | Cc1cc2ncc(-c3ccc(OC(C)(C)C)cc3)n2cc1-c1ccc(OC(C)C)c(F)c1 [Example C79, 3-(4-(tert-butoxy)phenyl)-6-(3-fluoro-4-isopropoxyphenyl)-7-methylimidazo[1,2-a]pyridine] | < 50% | 50 to 90% | 
24 | Cc1cc2ncc(-c3ccc(OC(C)(C)C)nc3)n2cc1-c1ccc(OC(C)C)c(F)c1 [Example C85, 3-(6-(tert-butoxy)pyridin-3-yl)-6-(3-fluoro-4-isopropoxyphenyl)-7-methylimidazo[1,2-a]pyridine] | < 50% | 50 to 90% | 
25 | Cc1cc2ncc(-c3ccc(OC(C)(C)C)nc3)n2cc1-c1ccc(OC(C)C)cc1 [Example C84, 3-(6-(tert-butoxy)pyridin-3-yl)-6-(4-isopropoxyphenyl)-7-methylimidazo[1,2-a]pyridine] | < 50% | 50 to 90% | 
26 | CC(C)(C)Oc1ccc(-c2ccc3ncc(-c4ccc(OC(C)(C)C)cc4)n3c2)cc1 [Example C82, 3,6-bis(4-(tert-butoxy)phenyl)imidazo[1,2-a]pyridine] | < 50% | > 90% | 
